Source: patent publication US10865191B2, “Heterocyclic compounds useful as modulators of TNF alpha” (BRISTOL-MYERS SQUIBB COMPANY, priority 2015, dated 2020)
Read-outs that look alike come from different tables or passages of the source.

Molecular target: TNFα (Homo sapiens, UniProt P01375)
Experiment: TNF induced HEK-Blue assay (NF-kB-driven secreted alkaline phosphatase reporter)
Type: cell-based
Conditions: TNFα 0.5 ng/mL, HEK-Blue-CD40L cells, 18 h
Experimental: TNF or CD40L-Induced HEK-Blue Assay
Test compounds serially diluted in DMSO were plated in an assay plate (LABCYTE, Cat. # LP-0200) at final concentrations ranging from 0.004 μM to 25 μM. TNFα (final concentration 0.5 ng/mL) or CD40L (final concentration 30 ng/mL) in assay buffer [DMEM, 4.5 g/l glucose (Gibco, Cat. 21063-029), 10% FBS (Sigma, F4135), 1% Penicillin-Streptomycin (Gibco, Cat. 15140-122), 1% Anti-Anti (Gibco, Cat. 15240-112) and 2 mM L-glutamine (Gibco, Cat. 25030-081)] was then added to the assay plate. After a 30 minute pre-incubation at 37° C. and 5% CO2, HEK-Blue™-CD40L cells (INVIVOGEN, Cat. Code hkb-cd40) containing a NF-kB-driven secreted alkaline phosphatase reporter gene were seeded into the assay plate at a density of 20,000 cells per well. This plate was then incubated for 18 h at 37° C. and 5% CO2. Secreted alkaline phosphatase expression was measured using QUANTI-Blue™ (INVIVOGEN, Cat. Code rep-qb1) according to manufacturer's specifications and the assay plate was read on a PerkinElmer Envision at 620 nm.
Inhibition data for the test compound over a range of concentrations was plotted as percentage inhibition of the test compound (100%=maximum inhibition). IC50 values were determined after correcting for background [(sample read-mean of low control)/(mean of high control-mean of low control)] where by the low control is DMSO without stimulation and high control is DMSO with stimulation. The IC50 is defined as the concentration of test compound which produces 50% inhibition and was quantified using the 4 parameter logistic equation to fit the data.

[1] = read-out: TNF induced HEK-Blue assay IC50 value
[2] = TNF induced HEK-Blue assay IC50 value

Chain of TNFα (P01375 77-233 limits assumed): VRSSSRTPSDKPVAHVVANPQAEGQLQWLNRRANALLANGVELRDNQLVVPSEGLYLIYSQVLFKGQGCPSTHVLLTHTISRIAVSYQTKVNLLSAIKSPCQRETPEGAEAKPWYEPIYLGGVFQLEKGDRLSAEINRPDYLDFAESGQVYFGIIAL

| Compound | IC50 [1] | IC50 [2] |
| --- | --- | --- |
| CC(Nc1c(Cl)cnc2ccc(-c3cnc(C(C)(C)O)nc3)cc12)C1(c2ccc(Cl)cc2)CCCC1 (racemic) [Example 142, 2-(5-(3-chloro-4-((1-(1-(4-chlorophenyl)cyclopentyl)ethyl)amino)quinolin-6-yl)pyrimidin-2-yl)propan-2-ol] | 10 to 25 µM | – |
| CC(CC(O)(c1ccccc1)c1ccccc1)Nc1c(Cl)cnc2ccc(-c3cnc(C(C)(C)O)nc3)cc12 (racemic) [Example 143, 3-((3-chloro-6-(2-(2-hydroxypropan-2-yl)pyrimidin-5-yl)quinolin-4-yl)amino)-1,1-diphenylbutan-1-ol] | 10 to 25 µM | – |
| CC(Cc1cccc2[nH]ccc12)Nc1c(Cl)cnc2ccc(-c3cnc(C(C)(C)O)nc3)cc12 (racemic) [Example 144, 2-(5-(4-((1-(1H-indol-4-yl)propan-2-yl)amino)-3-chloroquinolin-6-yl)pyrimidin-2-yl)propan-2-ol] | 1 to 10 µM | – |
| CC(Nc1c(Cl)cnc2ccc(-c3cnc(C(C)(C)O)nc3)cc12)c1cccc(C(F)(F)F)c1 (racemic) [Example 147, 2-(5-(3-chloro-4-((1-(3-(trifluoromethyl)phenyl)ethyl)amino)quinolin-6-yl)pyrimidin-2-yl)propan-2-ol] | 1 to 10 µM | – |
| Cc1ccc(C)c(C(C)Nc2c(Cl)cnc3ccc(-c4cnc(C(C)(C)O)nc4)cc23)c1 (racemic) [Example 149, 2-(5-(3-chloro-4-((1-(2,5-dimethylphenyl)ethyl)amino)quinolin-6-yl)pyrimidin-2-yl)propan-2-ol] | 1 to 10 µM | – |
| CC(Nc1c(Cl)cnc2ccc(-c3cnc(C(C)(C)O)nc3)cc12)c1ccc(C(F)(F)F)cc1 (racemic) [Example 150, 2-(5-(3-chloro-4-((1-(4-(trifluoromethyl)phenyl)ethyl)amino)quinolin-6-yl)pyrimidin-2-yl)propan-2-ol] | 10 to 25 µM | – |
| CC(Nc1c(Cl)cnc2ccc(-c3cnc(C(C)(C)O)nc3)cc12)c1ccccc1C(F)(F)F (racemic) [Example 151, 2-(5-(3-chloro-4-((1-(2-(trifluoromethyl)phenyl)ethyl)amino)quinolin-6-yl)pyrimidin-2-yl)propan-2-ol] | – | < 1 µM |
| CC(Nc1c(Cl)cnc2ccc(-c3cnc(C(C)(C)O)nc3)cc12)c1ccccc1F (racemic) [Example 152, 2-(5-(3-chloro-4-((1-(2-fluorophenyl)ethyl)amino)quinolin-6-yl)pyrimidin-2-yl)propan-2-ol] | – | < 1 µM |
| CC(Nc1c(Cl)cnc2ccc(-c3cnc(C(C)(C)O)nc3)cc12)c1ccccc1Cl (racemic) [Example 153, 2-(5-(3-chloro-4-((1-(2-chlorophenyl)ethyl)amino)quinolin-6-yl)pyrimidin-2-yl)propan-2-ol] | < 1 µM | – |
| CC(Nc1c(Cl)cnc2ccc(-c3cnc(C(C)(C)O)nc3)cc12)c1cccc(F)c1 (racemic) [Example 155, 2-(5-(3-chloro-4-((1-(3-fluorophenyl)ethyl)amino)quinolin-6-yl)pyrimidin-2-yl)propan-2-ol] | – | 1 to 10 µM |
| CC(Nc1c(F)cnc2ccc(-c3cnc(C(C)(C)O)nc3)cc12)c1ccccc1F (racemic) [Example 156, 2-(5-(3-fluoro-4-((1-(2-fluorophenyl)ethyl)amino)quinolin-6-yl)pyrimidin-2-yl) propan-2-ol] | 1 to 10 µM | – |
| CC(Nc1c(Cl)cnc2ccc(-c3cnc(C(C)(C)O)nc3)cc12)c1ccc(F)cc1 (racemic) [Example 157, 2-(5-(3-chloro-4-((1-(4-fluorophenyl)ethyl)amino)quinolin-6-yl)pyrimidin-2-yl)propan-2-ol] | – | 10 to 25 µM |
| Cc1nc2ccc(-c3cnc(C(C)(C)O)nc3)cc2c(NC(C)c2ccccc2F)c1F (racemic) [Example 159, 2-(5-(3-fluoro-4-((1-(2-fluorophenyl)ethyl)amino)-2-methylquinolin-6-yl)pyrimidin-2-yl)propan-2-ol] | 10 to 25 µM | – |
| CC(Nc1c(Cl)cnc2ccc(-c3cnc(C(C)(C)O)nc3)cc12)c1cc(F)ccc1F (racemic) [Example 160, 2-(5-(3-chloro-4-((1-(2,5-difluorophenyl)ethyl)amino)quinolin-6-yl)pyrimidin-2-yl)propan-2-ol] | < 1 µM | – |
| CC(Nc1c(Cl)cnc2ccc(-c3cnc(C(C)(C)O)nc3)cc12)c1ccncc1F (racemic) [Example 162, 2-(5-(3-chloro-4-((1-(3-fluoropyridin-4-yl)ethyl)amino)quinolin-6-yl)pyrimidin-2-yl)propan-2-ol] | < 1 µM | – |
| CC(Nc1c(Cl)cnc2ccc(-c3cnc(C(C)(C)O)nc3)cc12)c1ccc(F)cc1F (racemic) [Example 163, 2-(5-(3-chloro-4-((1-(2,4-difluorophenyl)ethyl)amino)quinolin-6-yl)pyrimidin-2-yl)propan-2-ol] | 1 to 10 µM | – |

| Compound | IC50 [1] | IC50 [2] |
| --- | --- | --- |
| CC(C)(O)c1ncc(-c2ccc3ncc(Cl)c(NC(c4ccccc4F)C(F)(F)F)c3c2)cn1 (racemic) [Example 164, 2-(5-(3-chloro-4-((2,2,2-trifluoro-1-(2-fluorophenyl)ethyl)amino)quinolin-6-yl)pyrimidin-2-yl)propan-2-ol] | 1 to 10 µM | – |
| CC(C)(O)c1ncc(-c2ccc3ncc(Cl)c(NC(CC(F)(F)F)c4ccccc4)c3c2)cn1 (racemic) [Example 165, 2-(5-(3-chloro-4-((3,3,3-trifluoro-1-phenylpropyl)amino)quinolin-6-yl)pyrimidin-2-yl)propan-2-ol] | < 1 µM | – |
| CC(Nc1c(Cl)cnc2ccc(-c3ccc(C(C)(C)O)cc3)cc12)c1cccnc1 (racemic) [Example 166, 2-(4-(3-chloro-4-((1-(pyridin-3-yl)ethyl)amino)quinolin-6-yl)phenyl)propan-2-ol] | 10 to 25 µM | – |
| CC(C)(O)c1ncc(-c2ccc3ncc(Cl)c(NC(CCO)c4ccccc4F)c3c2)cn1 (racemic) [Example 167, 3-((3-chloro-6-(2-(2-hydroxypropan-2-yl)pyrimidin-5-yl)quinolin-4-yl)amino)-3-(2-fluorophenyl)propan-1-ol] | < 1 µM | – |
| CC(C)(O)c1ncc(-c2ccc3ncc(Cl)c(NC(CC(F)F)c4ccccc4F)c3c2)cn1 (racemic) [Example 168, 2-(5-(3-chloro-4-((3,3-difluoro-1-(2-fluorophenyl)propyl)amino)quinolin-6-yl)pyrimidin-2-yl)propan-2-ol] | < 1 µM | – |
| CC(C)(O)c1ncc(-c2ccc3ncc(Cl)c(NC(CC(F)(F)F)c4ccccc4F)c3c2)cn1 (racemic) [Example 169, 2-(5-(3-chloro-4-((3,3,3-trifluoro-1-(2-fluorophenyl)propyl)amino)quinolin-6-yl)pyrimidin-2-yl)propan-2-ol] | < 1 µM | – |
| CC(Nc1c(Cl)cnc2ccc(-c3ccc(C(C)(C)O)cc3)cc12)c1ncccc1F (racemic) [Example 170, 2-(4-(3-chloro-4-((1-(3-fluoropyridin-2-yl)ethyl)amino)quinolin-6-yl)phenyl) propan-2-ol] | < 1 µM | – |
| CC(Nc1c(Cl)cnc2ccc(-c3cnc(C(C)(C)O)nc3)cc12)c1ncccc1F (racemic) [Example 171, 2-(5-(3-chloro-4-((1-(3-fluoropyridin-2-yl)ethyl)amino)quinolin-6-yl)pyrimidin-2-yl)propan-2-ol] | < 1 µM | – |
| CC(Nc1c(Cl)cnc2ccc(-c3ccc(C(C)(C)O)cc3)cc12)c1cnsc1 (racemic) [Example 172, 2-(4-(3-chloro-4-((1-(isothiazol-4-yl)ethyl)amino)quinolin-6-yl)phenyl)propan-2-ol] | 10 to 25 µM | – |
| CC(Nc1c(Cl)cnc2ccc(-c3ccc(C(C)(C)O)cc3)cc12)c1ccncn1 (racemic) [Example 173, 2-(4-(3-chloro-4-((1-(pyrimidin-4-yl)ethyl)amino)quinolin-6-yl)phenyl)propan-2-ol] | 1 to 10 µM | – |
| CC(Nc1c(Cl)cnc2ccc(-c3ccc(C(C)(C)O)cc3)cc12)c1ccon1 (racemic) [Example 174, 2-(4-(3-chloro-4-((1-(isoxazol-3-yl)ethyl)amino)quinolin-6-yl)phenyl)propan-2-ol] | 10 to 25 µM | – |
| CC(Nc1c(Cl)cnc2ccc(-c3ccc(C(C)(C)O)cc3)cc12)c1ccccn1 (racemic) [Example 175, 2-(4-(3-chloro-4-((1-(pyridin-2-yl)ethyl)amino)quinolin-6-yl)phenyl)propan-2-ol] | < 1 µM | – |
| CC(Nc1c(Cl)cnc2ccc(-c3ccc(C(C)(C)O)cc3)cc12)c1ccncc1 (racemic) [Example 176, 2-(4-(3-chloro-4-((1-(pyridin-4-yl)ethyl)amino)quinolin-6-yl)phenyl)propan-2-ol] | < 1 µM | – |
| CC(Nc1c(Cl)cnc2ccc(-c3ccc(C(C)(C)O)cc3)cc12)c1ncccn1 (racemic) [Example 177, 2-(4-(3-chloro-4-((1-(pyrimidin-2-yl)ethyl)amino)quinolin-6-yl)phenyl)propan-2-ol] | < 1 µM | – |
| Cc1ccnc(C(C)Nc2c(Cl)cnc3ccc(-c4ccc(C(C)(C)O)cc4)cc23)n1 (racemic) [Example 178, 2-(4-(3-chloro-4-((1-(4-methylpyrimidin-2-yl)ethyl)amino)quinolin-6-yl)phenyl)propan-2-ol] | < 1 µM | – |
